Structures can show the parent of a compound that is named as a salt.

These results are taken from patent US6589970B2, “6-(aryl-amido or aryl-amidomethyl)-naphthalen-2-yloxy-acidic derivatives as inhibitors of plasminogen activator inhibitor type-1 (PAI-1)” (Wyeth, priority 2001, dated 2003).

For data set [1], the target named is T1, recombinant human plasminogen activator inhibitor-1 (PAI-1) (Homo sapiens, UniProt P05121).
T1 construct: purchased Molecular Innovations, Royal Oak, Mich
Briefly: Primary Screen for the PAI-1 Inhibition. Type of data set: biochemical. Conditions: for inhibition at 25 µM: 25 μM test compound, read-out: % Inhib. 25 μM; for inhibition at 100 µM: 100 μM test compound, read-out: % Inhib. 100 μM. Put shortly:
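Compound (1-100 μM final, ≤0.2% DMSO) was preincubated for 1 h at room temperature with 140 nM recombinant human PAI-1 at pH 6.6. tPA was then added at 70 nM for 30 min. Residual tPA activity was measured with Spectrozyme-tPA (A405 at 0 and 60 min) and taken as relative PAI-1 inhibition.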

Data set [2] deals with T1, recombinant human plasminogen activator inhibitor-1 (PAI-1). The experiment in a line: Modification of the Primary Screen for the PAI-1 Inhibition (IC50). Type of data set: biochemical. The protocol:
Test compounds are dissolved in DMSO at a final concentration of 10 mM, then diluted 100× in physiologic buffer. The inhibitory assay is initiated by the addition of the test compound (1-100 μM final concentration, maximum DMSO concentration of 0.2%) in a pH 6.6 buffer containing 140 nM recombinant human plasminogen activator inhibitor-1 (PAI-1; Molecular Innovations, Royal Oak, Mich.). Following a 1 hour incubation at room temperature, 70 nM of recombinant human tissue plasminogen activator (tPA) is added, and the combination of the test compound, PAI-1 and tPA is incubated for an additional 30 minutes. Following the second incubation, Spectrozyme-tPA (American Diagnostica, Greenwich, Conn.), a chromogenic substrate for tPA, is added and absorbance read at 405 nm at 0 and 60 minutes. Relative PAI-1 inhibition is equal to the residual tPA activity in the presence of the test compound and PAI-1. Control treatments include the complete inhibition of tPA by PAI-1 at the molar ratio employed (2:1), and the absence of any effect of the test compound on tPA alone.

A further data set has as its target human PAI-1 (Homo sapiens, UniProt P05121). Briefly: Assay for Determining IC50 of Inhibition of PAI-1 (Antibody Assay). Type of data set: biochemical. Conditions: active PAI-1 bound to tPA-coated plate. The method, then: This assay is based upon the non-SDS dissociable interaction between tPA and active PAI-1. Assay plates are initially coated with human tPA (10 μg/ml). The test compounds are dissolved in DMSO at 10 mM, then diluted with physiologic buffer (pH 7.5) to a final concentration of 1-50 μM. The test compounds are incubated with human PAI-1 (50 ng/ml) for 15 minutes at room temperature. The tPA-coated plate is washed with a solution of 0.05% Tween 20 and 0.1% BSA, then the plate is blocked with a solution of 3% BSA. An aliquot of the test compound/PAI-1 solution is then added to the tPA-coated plate, incubated at room temperature for 1 hour, and washed. Active PAI-1 bound to the plate is assessed by adding an aliquot of a 1:1000 dilution of the 33B8 monoclonal antibody against human PAI-1, and incubating the plate at room temperature for 1 hour (Molecular Innovations, Royal Oak, Mich. The plate is again washed, and a solution of goat anti-mouse IgG-alkaline phosphatase conjugate is added at a 1:50,000 dilution in goat serum. The plate is incubated 30 minutes at room temperature, washed, and a solution of alkaline phosphatase substrate is added. The plate is incubated 45 minutes at room temperature, and color development is determined at OD405nm. The quantitation of active PAI-1 bound to tPA at varying concentrations of the test compound is used to determine the IC50. Results are analyzed using a logarithmic best-fit equation. The assay sensitivity is 5 ng/ml of human PAI-1 as determined from a standard curve ranging from 0-100 ng/ml.

T1 sequence (P05121 24-402): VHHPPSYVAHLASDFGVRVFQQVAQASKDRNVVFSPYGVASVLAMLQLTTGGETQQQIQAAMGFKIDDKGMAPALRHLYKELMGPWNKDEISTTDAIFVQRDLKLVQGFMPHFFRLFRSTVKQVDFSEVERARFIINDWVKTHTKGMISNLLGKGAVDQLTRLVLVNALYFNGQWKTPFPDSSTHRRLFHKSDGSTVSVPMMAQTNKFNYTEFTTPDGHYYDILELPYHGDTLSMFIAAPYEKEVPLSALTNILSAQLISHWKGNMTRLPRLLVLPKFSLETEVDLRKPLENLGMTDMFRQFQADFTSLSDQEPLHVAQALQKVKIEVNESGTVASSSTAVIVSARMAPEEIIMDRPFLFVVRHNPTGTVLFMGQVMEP
Chain of human PAI-1 (P05121 24-402): as above

Compound `CCCCc1oc2ccccc2c1C(=O)Nc1ccc2cc(OCc3nn[nH]n3)ccc2c1` [Example 3, 2-Butyl-benzofuran-3-carboxylic acid [6-(2H-tetrazol-5-ylmethoxy)-naphthalen-2-yl]-amide] showed a melting point of 194 to 198 °C. In data set [1], the inhibition at 25 µM came out at 38% and the inhibition at 100 µM is 75%. Besides, the concentration for half-maximal inhibition (IC50) in data set [2] was found to be 3.2 µM.

Take `CCCCc1oc2ccccc2c1C(=O)Nc1ccc2c(Br)c(OCC(=O)O)ccc2c1` [Example 6, {1-Bromo-6-[(2-butyl-benzofuran-3-carbonyl)-amino]-naphthalen-2-yloxy}-acetic acid sodium salt]: in data set [1], the inhibition at 25 µM stood at 43% and the inhibition at 100 µM was 67%. In addition, the IC50 in data set [2] is 18.3 µM.

For the compound `CCCCc1oc2ccccc2c1C(=O)Nc1ccc2c(Br)c(OC(Cc3ccccc3)C(=O)O)ccc2c1` (stereo not shown) [Example 7, 2-{1-Bromo-6-[(2-butyl-benzofuran-3-carbonyl)-amino]-naphthalen-2-yloxy}-3-phenyl-propionic acid], the IC50 was 16.6 µM at human PAI-1 and 7.8 µM in data set [2]. For the same compound, in data set [1], the inhibition at 25 µM was determined as 64%. In data set [1], the inhibition at 100 µM was determined as 83%.

Turning to `CCCCc1oc2ccccc2c1C(=O)NCc1ccc2cc(OCc3nnn[nH]3)ccc2c1` [Example 8, 2-Butyl-benzofuran-3-carboxylic acid [6-(1H-tetrazol-5-ylmethoxy)-naphthalen-2-ylmethyl]-amide sodium salt], in data set [1], the inhibition at 25 µM came to 13% and the inhibition at 100 µM was determined as 71%. Further, the concentration for half-maximal inhibition (IC50) in data set [2] turned out to be 22.9 µM.

Regarding `Cc1oc(-c2ccc(Cl)cc2)cc1C(=O)NCc1ccc2cc(OCC(=O)O)ccc2c1` [Example 10, [6-({[5-(4-Chloro-phenyl)-2-methyl-furan-3-carbonyl]-amino}-methyl)-naphthalen-2-yloxy]-acetic acid], in data set [1], the inhibition at 25 µM was 7% and the inhibition at 100 µM is 53%. In addition, the IC50 in data set [2] amounted to 25.2 µM.

The compound `CCCCc1oc2ccccc2c1C(=O)NCc1ccc2c(Br)c(OCc3nnn[nH]3)ccc2c1.[Na]` [Example 17, 2-Butyl-benzofuran-3-carboxylic acid [5-bromo-6-(1H-tetrazol-5-ylmethoxy)-naphthalen-2-ylmethyl]-amide sodium salt] registered a melting point of 214 to 215 °C. This compound also came in with a concentration for half-maximal inhibition (IC50) against human PAI-1 of 16.1 µM. For the same compound, the inhibition at 100 µM in data set [1] stood at 80%. Moreover, the IC50 in data set [2] was found to be 1.4 µM.

Regarding `CCCCc1oc2ccccc2c1C(=O)NCc1ccc2c(-c3ccc(OC)cc3)c(OCc3nnn[nH]3)ccc2c1` [Example 25, 2-Butyl-benzofuran-3-carboxylic [5-(4-methoxy phenyl)-6-(1H-tetrazol-5-ylmethoxy)-naphthalen-2-ylmethyl]-amide, sodium salt], in data set [1], the inhibition at 25 µM came out at 3% and the inhibition at 100 µM is 94%. Further, in data set [2], the IC50 came out at 4.6 µM.

The compound `CCCCc1oc2ccccc2c1C(=O)NCc1ccc2c(-c3ccc(Cl)cc3)c(OCc3nnn[nH]3)ccc2c1` [Example 26, 2-Butyl-benzofuran-3-carboxylic acid [5-(4-chloro-phenyl)-6-(1-tetrazol-5-ylmethoxy)-naphthalen-2-ylmethyl]-amide] registered a melting point of 208 to 211 °C. Moreover, in data set [1], the inhibition at 25 µM was determined as 20% and the inhibition at 100 µM was 98%. For the same compound, the half-maximal inhibitory concentration (IC50) in data set [2] is 4.3 µM.

For the compound `CCCCc1oc2ccccc2c1C(=O)NCc1ccc2c(-c3ccccc3)c(OCC(=O)O)ccc2c1` [Example 28, (6-{[(2-Butyl-benzofuran-3-carbonyl)-amino]-methyl}-1-phenyl-naphthanen-2-yloxy)-acetic acid], the melting point is 180 to 183 °C. For the same compound, in data set [1], the inhibition at 25 µM came out at 22% and the inhibition at 100 µM amounted to 100%. In addition, the half-inhibitory concentration (IC50) in data set [2] turned out to be 20.2 µM.

In the case of `CCCCc1oc2ccccc2c1C(=O)NCc1ccc2c(-c3ccc(Cl)cc3)c(OC(Cc3ccccc3)C(=O)O)ccc2c1` (stereo not shown) [Example 29, 2-[6-{[(2-Butyl-benzofuran-3-carbonyl)-amino]-methyl}-1-(4-chloro-phenyl)-naphthalen-2-yloxy]-3-phenyl-propionic acid], in data set [1], the inhibition at 25 µM is 23% and the inhibition at 100 µM was determined as 100%. Moreover, the IC50 in data set [2] amounted to 8.5 µM.

Take `CCCCc1oc2ccccc2c1C(=O)N(Cc1ccccc1)Cc1ccc2c(Br)c(OCc3nnn[nH]3)ccc2c1` [Example 48, 2-Butyl-benzofuran-3-carboxylic acid benzyl-[5-bromo-6-(1H-tetrazol-5-ylmethoxy)-naphthalen-2-ylmethyl]-amide]: the half-maximal inhibitory concentration (IC50) is 17.5 µM at human PAI-1 and 20.9 µM in data set [2]. Moreover, the inhibition at 25 µM in data set [1] is 48%. Also, the inhibition at 100 µM in data set [1] was 85%.

Consider `CCCCc1oc2ccccc2c1C(=O)N(CCCC)Cc1ccc2c(Br)c(OCc3nnn[nH]3)ccc2c1` [Example 51, 2-Butyl-benzofuran-3-carboxylic acid [5-bromo-6-(1H-tetrazol-5-ylmethoxy)-naphthalen-2-ylmethyl]-butyl-amide], for which the half-maximal inhibitory concentration (IC50) at human PAI-1 came to 18.7 µM. In addition, in data set [1], the inhibition at 25 µM worked out at 69% and the inhibition at 100 µM amounted to 91%. In addition, in data set [2], the IC50 was 6.9 µM.

As to `CCCCN(Cc1ccc2c(Br)c(OCc3nnn[nH]3)ccc2c1)C(=O)c1c(C)oc2ccccc12` [Example 52, 2-Methyl-benzofuran-3-carboxylic acid [5-bromo-6-(1H-tetrazol-5-ylmethoxy)-naphthalen-2-ylmethyl]-butyl-amide], the melting point was in the range of 204 to 206 °C. The same compound displayed a concentration for half-maximal inhibition (IC50) against human PAI-1 of 20.8 µM. In addition, in data set [1], the inhibition at 25 µM was found to be 44% and the inhibition at 100 µM was determined as 81%.

Take `CCCc1c(C(=O)NCc2ccc3c(Br)c(OC(Cc4ccccc4)C(=O)O)ccc3c2)cnn1-c1ccccc1` (stereo not shown) [Example 54, 2-(1-Bromo-6-{[(1-phenyl-5-propyl-1H-pyrazole-4-carbonyl)-amino]-methyl}-naphthalen-2-yloxy)-3-phenyl-propionic acid]: in data set [1], the inhibition at 25 µM came out at 18% and the inhibition at 100 µM worked out at 80%. In data set [2], the half-maximal inhibitory concentration (IC50) was 11.8 µM.

Turning to `O=C(NCc1ccc2c(Br)c(OC(Cc3ccccc3)C(=O)O)ccc2c1)c1ccc(C2CCCCC2)cc1` (stereo not shown) [Example 55], the IC50 on human PAI-1 worked out at 16.8 µM; in data set [2], 11.8 µM. In data set [1], the inhibition at 25 µM worked out at 35%. Moreover, in data set [1], the inhibition at 100 µM turned out to be 60%.

As for `CC(C)(C)c1cc(C(=O)NCc2ccc3c(Br)c(OC(Cc4ccccc4)C(=O)O)ccc3c2)cc(C(C)(C)C)c1` (stereo not shown) [Example 56, 2-{1-Bromo-6-[(3,5-di-tert-butyl-benzoylamino)-methyl]-naphthalen-2-yloxy}-3-phenyl-propionic acid], the melting point lay in the range of 160 to 163 °C. In data set [1], the inhibition at 25 µM is 84% and the inhibition at 100 µM amounted to 100%. The IC50 in data set [2] came to 1.9 µM.

As for `O=C(NCc1ccc2c(Br)c(OC(Cc3ccccc3)C(=O)O)ccc2c1)c1cccc(Oc2ccccc2)c1` (stereo not shown) [Example 57, 2-{1-Bromo-6-[(3-phenoxy-benzoylamino)-methyl]-naphthalen-2-yloxy}-3-phenyl-propionic acid], in data set [1], the inhibition at 25 µM amounted to 24% and the inhibition at 100 µM amounted to 98%. Also, the IC50 in data set [2] worked out at 5.5 µM.

As to `O=C(O)COc1ccc2cc(CNC(=O)c3cc(-c4ccccc4Cl)oc3C(F)(F)F)ccc2c1` [Example 81, [6-({[5-(2-Chloro-phenyl)-2-trifluoromethyl-furan-3-carbonyl]-amino}-methyl)-naphthalen-2-yloxy]-acetic acid], in data set [1], the inhibition at 25 µM was found to be 12% and the inhibition at 100 µM came to 78%. The IC50 in data set [2] was 36.5 µM.

In general, IC50 refers to the point on the concentration scale where inhibition reaches its midpoint. One may read the melting point as the temperature of the solid-liquid transition.
